Data taken from PMC10786919, “Design-rules for stapled peptides with in vivo activity and their application to Mdm2/X antagonists” (Nature Communications, 2024).
Read-outs that look alike come from different tables or passages of the source. Positions of bridges follow the written chain, without caps; N, C: chain ends. Non-standard residues stand in square brackets, D forms with d. Residues, ends and D or L forms follow the SMILES beside them. R8 = C=CCCCCCC[C@@](C)(N)C(=O)O; S5 = C=CCCC[C@](C)(N)C(=O)O; Ahx = NCCCCCC(=O)O

Legend:
Type in all cases: cell-based
[1] = Lactate dehydrogenase (LDH) release assay; conditions: LDH: Cytotoxicity assay EC50
Method in brief: (§1)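 Geometric means of at least three independent biological runs are given for LDH release measured in HCT116 cells stably expressing a p53-driven β-lactamase reporter. Plating density was 8000 cells/well; DMSO in wells was 0.5%.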

HCT116 cells = assay: Lactate dehydrogenase (LDH) release assay
Method in brief: as §1

[2] = tested on: p53 responsive β-lactamase reporter in HCT116 cells; assay: cells; conditions: read-out: p53 reporter assay EC50
Protocol: HCT116 cells were stably transfected with a p53 responsive β-lactamase reporter and expanded in McCoy’s 5 A Medium with 10% fetal bovine serum (FBS), Blasticidin, and Penicillin/Streptomycin and then transferred to 1.5 ml freezing vials and stored under liquid nitrogen in growth media containing 5% DMSO. […] The cells were then seeded into a 384-well plate at a density of 8000 cells per well. […] The final working concentration of DMSO was 0.5%. β-lactamase activity was detected using the ToxBLAzer Dual Screen (Invitrogen), as per the manufacturer’s instructions. Measurements were made using the Envision multiplate reader (Perkin–Elmer). […] Measurements were taken a minimum of three times (biological replicates) and values are reported as geometric means of the replicates.

[3] = tested on: Jump-In T-REx CHO-K1 BLA cells; assay: cells; conditions: for EC50: read-out: TETCHO: Counterscreen EC50
Protocol: This assay was based on Jump-In™ T-REx™ CHO-K1 BLA cells containing a stably integrated β-lactamase under the control of an inducible cytomegalovirus (CMV) promoter. Cells were maintained in Dulbecco’s […] Eagle Medium (DMEM) with 10% fetal bovine serum (FBS), Blasticidin, and Penicillin/Streptomycin and then transferred to 1.5 ml freezing vials and stored under liquid nitrogen in growth media containing 5% DMSO. […] Cells were seeded into a 384-well plate at a density of 4000 cells per well. Peptides were then dispensed to each well using a liquid handler, ECHO 555 and incubated for 16 h. The final working concentration of DMSO was 0.5%. β-lactamase activity was detected using the ToxBLAzer Dual Screen (Invitrogen), as per the manufacturer’s instructions. Measurements were carried out using the Envision multiplate reader (Perkin–Elmer). Counterscreen activity was defined as the amount of β-lactamase activity induced by tetracycline. Measurements were taken a minimum of three times (biological replicates) and values are reported as geometric means of the replicates.

SMILES	EC50 [1]	LDH: Cytotoxicity assay % Effect (HCT116 cells)	EC50 ([2]; 0% FBS 4Hr)	TETCHO: Counterscreen % Effect ([3]; 0% FBS 4Hr)	EC50 ([3]; 0% FBS 4Hr)	EC50 ([2]; 0% FBS 16Hr)	TETCHO: Counterscreen % Effect ([3]; 0% FBS 16Hr)
CC(=O)N[C@H](C(=O)N[C@@H](CO)C(=O)N[C@@H](Cc1ccccc1)C(=O)N[C@]1(C)CCCCCCC=CCCC[C@@](C)(C(=O)O)NC(=O)[C@H](CC(C)C)NC(=O)[C@H](CC(C)C)NC(=O)[C@H](C)NC(=O)[C@H](Cc2c[nH]c3ccccc23)NC(=O)[C@H](Cc2ccc(O)cc2)NC(=O)[C@H](CCC(=O)O)NC1=O)[C@@H](C)O [MP-162]	> 50.7 µM	20.08%	36.2 µM	18.54%	46.9 µM	–	–
CC(=O)N[C@@H](CCCCN)C(=O)N[C@@H](CCCCN)C(=O)NCCCCCC(=O)N[C@H](C(=O)N[C@@H](CO)C(=O)N[C@@H](CC(C)C)C(=O)N[C@]1(C)CCCCCCC=CCCC[C@@](C)(C(=O)N[C@@H](CCC(=O)O)C(=O)N[C@@H](CC(N)=O)C(=O)N[C@@H](Cc2ccccc2)C(N)=O)NC(=O)[C@H](Cc2c[nH]c3ccccc23)NC(=O)[C@H](CC(C)C)NC(=O)[C@H](C)NC(=O)[C@H](Cc2ccccc2)NC(=O)[C@H](Cc2ccc(O)cc2)NC(=O)[C@H](CCC(=O)O)NC1=O)[C@@H](C)O [MP-039] (Ac-KK[Ahx]TSL[R8]EYFALW[S5]ENF-NH2; staple 7-14)	> 50 µM	28.85%	> 50 µM	–	–	–	–
CC(=O)N[C@@H](CCCNC(=N)N)C(=O)N[C@@H](CCCNC(=N)N)C(=O)NCCCCCC(=O)N[C@H](C(=O)N[C@@H](CO)C(=O)N[C@@H](Cc1ccccc1)C(=O)N[C@]1(C)CCCCCCC=CCCC[C@@](C)(C(=O)N[C@@H](CCC(=O)O)C(=O)N[C@@H](CC(N)=O)C(=O)N[C@@H](Cc2ccccc2)C(N)=O)NC(=O)[C@H](CC(C)C)NC(=O)[C@H](CC(C)C)NC(=O)[C@H](C)NC(=O)[C@H](Cc2c[nH]c3ccccc23)NC(=O)[C@H](Cc2ccc(O)cc2)NC(=O)[C@H](CCC(=O)O)NC1=O)[C@@H](C)O [MP-037] (Ac-RR[Ahx]TSF[R8]EYWALL[S5]ENF-NH2; staple 7-14)	> 50 µM	3.464%	20.2 µM	–	–	–	–
CC(=O)N[C@@H](CCCCN)C(=O)N[C@@H](CCCCN)C(=O)NCCCCCC(=O)N[C@H](C(=O)N[C@@H](CO)C(=O)N[C@@H](Cc1ccccc1)C(=O)N[C@]1(C)CCCCCCC=CCCC[C@@](C)(C(=O)N[C@@H](CCC(=O)O)C(=O)N[C@@H](CC(N)=O)C(=O)N[C@@H](Cc2ccccc2)C(N)=O)NC(=O)[C@H](CC(C)C)NC(=O)[C@H](CC(C)C)NC(=O)[C@H](C)NC(=O)[C@H](Cc2c[nH]c3ccccc23)NC(=O)[C@H](Cc2ccc(O)cc2)NC(=O)[C@H](CCC(=O)O)NC1=O)[C@@H](C)O [MP-5363] (Ac-KK[Ahx]TSF[R8]EYWALL[S5]ENF-NH2; staple 7-14)	–	–	3.42 µM	48.32%	> 50 µM	3.25 µM	4.17%
CC(=O)N[C@H](C(=O)N[C@@H](CO)C(=O)N[C@@H](Cc1ccccc1)C(=O)N[C@]1(C)CCCC=CCCCCCC[C@@](C)(C(N)=O)NC(=O)[C@H](CC(C)C)NC(=O)[C@H](CC(C)C)NC(=O)[C@H](C)NC(=O)[C@H](Cc2c[nH]c3ccccc23)NC(=O)[C@H](Cc2ccc(O)cc2)NC(=O)[C@H](CCC(=O)O)NC1=O)[C@@H](C)O [MP-035]	> 50 µM	37.58%	8.8 µM	–	–	–	–
CC(=O)N1CCC[C@H]1C(=O)N[C@@H](CCCNC(=N)N)C(=O)N[C@@H](Cc1ccccc1)C(=O)N[C@]1(C)CCCCCCC=CCCC[C@@](C)(C(N)=O)NC(=O)[C@H](CC(C)C)NC(=O)[C@H](CCCNC(=N)N)NC(=O)[C@H](Cc2ccc(O)cc2)NC(=O)[C@H](Cc2c[nH]c3ccccc23)NC(=O)[C@H](Cc2ccc(O)cc2)NC(=O)[C@H](CCC(=O)O)NC1=O [MP-2032] (Ac-PRF[R8]EYWYRL[S5]-NH2; staple 4-11)	> 50 µM	-1.239%	25.7 µM	–	–	–	–
CC(=O)N1CCC[C@H]1C(=O)N[C@@H](CCCNC(=N)N)C(=O)N[C@@H](Cc1ccccc1)C(=O)N[C@]1(C)CCCCCCC=CCCC[C@@](C)(C(N)=O)NC(=O)[C@H](CC(C)C)NC(=O)[C@H](CCCNC(=N)N)NC(=O)[C@H](CC(C)C)NC(=O)[C@H](Cc2c[nH]c3ccccc23)NC(=O)[C@H](Cc2ccc(O)cc2)NC(=O)[C@H](CCC(=O)O)NC1=O [MP-031] (Ac-PRF[R8]EYWLRL[S5]-NH2; staple 4-11)	> 50 µM	-3.388%	32.4 µM	–	–	–	–
CC(=O)N[C@@H](CCCCN)C(=O)NCCCCCC(=O)N[C@H](C(=O)N[C@@H](CO)C(=O)N[C@@H](Cc1ccccc1)C(=O)N[C@]1(C)CCCCCCC=CCCC[C@@](C)(C(=O)N[C@@H](CCC(=O)O)C(=O)N[C@@H](CC(N)=O)C(=O)N[C@@H](Cc2ccccc2)C(N)=O)NC(=O)[C@H](CC(C)C)NC(=O)[C@H](CC(C)C)NC(=O)[C@H](C)NC(=O)[C@H](Cc2c[nH]c3ccccc23)NC(=O)[C@H](Cc2ccc(O)cc2)NC(=O)[C@H](CCC(=O)O)NC1=O)[C@@H](C)O [MP-5365]	–	–	3.58 µM	4.41%	> 50 µM	2.2 µM	1.46%
CC(=O)N[C@@H](CCCCN)C(=O)N[C@@H](CC(C)C)C(=O)N[C@@H](C)C(=O)N[C@@H](CCCCN)C(=O)NCCCCCC(=O)N[C@H](C(=O)N[C@@H](CO)C(=O)N[C@@H](Cc1ccccc1)C(=O)N[C@]1(C)CCCCCCC=CCCC[C@@](C)(C(=O)N[C@@H](CCC(=O)O)C(=O)N[C@@H](CC(N)=O)C(=O)N[C@@H](Cc2ccccc2)C(N)=O)NC(=O)[C@H](CC(C)C)NC(=O)[C@H](CC(C)C)NC(=O)[C@H](C)NC(=O)[C@H](Cc2c[nH]c3ccccc23)NC(=O)[C@H](Cc2ccc(O)cc2)NC(=O)[C@H](CCC(=O)O)NC1=O)[C@@H](C)O [MP-2041] (Ac-KLAK[Ahx]TSF[R8]EYWALL[S5]ENF-NH2; staple 9-16)	> 50 µM	5.898%	6.06 µM	–	–	–	–
CC(=O)N[C@H](C(=O)N[C@@H](CO)C(=O)N[C@@H](CC(C)C)C(=O)N[C@]1(C)CCCCCCC=CCCC[C@@](C)(C(N)=O)NC(=O)[C@H](Cc2c[nH]c3ccccc23)NC(=O)[C@H](CC(C)C)NC(=O)[C@H](C)NC(=O)[C@H](Cc2ccccc2)NC(=O)[C@H](Cc2ccc(O)cc2)NC(=O)[C@H](CCC(=O)O)NC1=O)[C@@H](C)O [MP-2040] (Ac-TSL[R8]EYFALW[S5]-NH2; staple 4-11)	> 50 µM	24.89%	7.46 µM	–	–	–	–
CC(=O)N[C@H](C(=O)N[C@@H](CO)C(=O)N[C@@H](Cc1ccccc1)C(=O)N[C@]1(C)CCCCCCC=CCCC[C@@](C)(C(N)=O)NC(=O)[C@H](CC(C)C)NC(=O)[C@H](CCCCN)NC(=O)[C@H](CC(C)C)NC(=O)[C@H](Cc2c[nH]c3ccccc23)NC(=O)[C@H](Cc2ccc(O)cc2)NC(=O)[C@H](CCC(=O)O)NC1=O)[C@@H](C)O [MP-034] (Ac-TSF[R8]EYWLKL[S5]-NH2; staple 4-11)	> 50 µM	3.672%	12.8 µM	–	–	–	–
CC(=O)N1CCC[C@H]1C(=O)N[C@@H](CCCNC(=N)N)C(=O)N[C@@H](Cc1ccccc1)C(=O)N[C@]1(C)CCCCCCC=CCCC[C@@](C)(C(=O)N[C@@H](CCC(=O)O)C(N)=O)NC(=O)[C@H](CC(C)C)NC(=O)[C@H](CCCNC(=N)N)NC(=O)[C@H](Cc2ccc(O)cc2)NC(=O)[C@H](Cc2c[nH]c3ccccc23)NC(=O)[C@H](Cc2ccc(O)cc2)NC(=O)[C@H](CCC(=O)O)NC1=O [MP-2030] (Ac-PRF[R8]EYWYRL[S5]E-NH2; staple 4-11)	> 50 µM	32.25%	6.62 µM	–	–	–	–
CC(=O)N[C@@H](CCCNC(=N)N)C(=O)NCCCCCC(=O)N[C@H](C(=O)N[C@@H](CO)C(=O)N[C@@H](Cc1ccccc1)C(=O)N[C@]1(C)CCCCCCC=CCCC[C@@](C)(C(=O)N[C@@H](CCC(=O)O)C(=O)N[C@@H](CC(N)=O)C(=O)N[C@@H](Cc2ccccc2)C(N)=O)NC(=O)[C@H](CC(C)C)NC(=O)[C@H](CC(C)C)NC(=O)[C@H](C)NC(=O)[C@H](Cc2c[nH]c3ccccc23)NC(=O)[C@H](Cc2ccc(O)cc2)NC(=O)[C@H](CCC(=O)O)NC1=O)[C@@H](C)O [MP-038]	> 50 µM	5.515%	2.49 µM	–	–	–	–
CC(=O)N[C@H](C(=O)N[C@@H](CO)C(=O)N[C@@H](Cc1ccccc1)C(=O)N[C@]1(C)CCCCCCC=CCCC[C@@](C)(C(N)=O)NC(=O)[C@H](CC(C)C)NC(=O)[C@H](CCCNC(=N)N)NC(=O)[C@H](Cc2ccc(O)cc2)NC(=O)[C@H](Cc2c[nH]c3ccccc23)NC(=O)[C@H](Cc2ccc(O)cc2)NC(=O)[C@H](CCC(=O)O)NC1=O)[C@@H](C)O [MP-033] (Ac-TSF[R8]EYWYRL[S5]-NH2; staple 4-11)	> 50 µM	1.548%	13.6 µM	–	–	–	–
